For the series the following is noted: buffer; pH 7.4; 6.0 h; 150.0 µM.

≈ marks a conversion by molar mass, not a printed value. Bounds are passed on as bounds.

Usually kinetic solubility stands for the concentration staying in solution when a stock, usually in DMSO, is diluted into the medium. With `CC(C)CC(=O)Nc1n[nH]c2c1CN(C(=O)C1CCN(C)CC1)C2(C)C`, the kinetic solubility is above 53 µg/mL.

Regarding `O=C(NCCc1nc2ccccc2n1CCO)C1CCCCC1`, the solubility (kinetic) was above 47 µg/mL.

On to `O=C(Nc1ccc(S(=O)(=O)Nc2nc(-c3ccccc3)cs2)cc1)c1ccc2ccccc2c1`, for which the solubility (kinetic) is below 1 µg/mL.

In turn, `COc1ccccc1NC(=O)C1=C(C)Nc2c(C(=O)Nc3cccc(C)c3)cnn2C1c1ccccc1Cl` (configuration not stated) displayed a kinetic solubility below 1 µg/mL.

`O=C(Cc1ccc(Cl)c(Cl)c1)Nc1ccc(S(=O)(=O)Nc2cncnc2)cc1` gave a solubility (kinetic) above 64 µg/mL.

On to `COc1cccc(CNc2ccc(S(=O)(=O)Nc3cc(C)on3)cc2)c1O`, for which the kinetic solubility was above 58 µg/mL.

On to `CN(C)c1ccc(-c2csc(N3CCC(C(N)=O)CC3)n2)cc1`, for which the kinetic solubility is 3.78 µg/mL (≈ 11.4 µM).

As for `O=C(Cc1c[nH]c2ncc(-c3ccc(Cl)cc3)cc12)NCc1cccnc1`, the kinetic solubility came out at 17.5 µg/mL (≈ 46.4 µM).

Turning to `Cc1ccnc(NC(=S)N2CCN(c3cccc(C(F)(F)F)c3)C[C@@H]2C)c1`, the solubility (kinetic) turned out to be 3.88 µg/mL (≈ 9.84 µM).

For the compound `O=C(Nc1ccc(S(=O)(=O)Nc2nccs2)cc1)c1ccc(-c2ccccc2)cc1`, the kinetic solubility was below 1 µg/mL.

As for `O=C(CSc1nc(-c2ccc(F)cc2)[nH]c1-c1ccc(F)cc1)Nc1ccc2c(c1)OCCO2`, the kinetic solubility was below 1 µg/mL.

In turn, `O=C(NCCCNc1nc(Nc2cccc(CN3CCOCC3)c2)ncc1C1CC1)C1CCC1` gave a solubility (kinetic) above 69 µg/mL.

Compound `O=C1CCCC2=C1C(c1[nH]ncc1Br)N=C(Nc1nc3ccccc3o1)N2` (configuration not stated) displayed a kinetic solubility below 1 µg/mL.

`CCN(CC)C(=O)c1ccc(O)c(OC)c1`: the solubility (kinetic) worked out at 27.3 µg/mL (≈ 122 µM).

`CCn1c(SCc2ccc(C#N)cc2)nnc1-c1cccc(Cl)c1`: the kinetic solubility came to 34.2 µg/mL (≈ 96.3 µM).

Turning to `O=C(Nc1ccc(Cl)cc1)Nc1ccc(Cl)c(Cl)c1`, the solubility (kinetic) is below 1 µg/mL.

`CN1CCN(C2=Nc3ccccc3Sc3ccc(Cl)cc32)CC1` registered a solubility (kinetic) of 18.7 µg/mL (≈ 54.3 µM).

Compound `Cc1cn2c(N)c(Cl)cc(C(=O)NCC3CCN(CC(C)C)CC3)c2n1` registered a solubility (kinetic) of 39.2 µg/mL (≈ 104 µM).

For the compound `COC12C(COC(N)=O)C3=C(C(=O)C(C)=C(N)C3=O)N1CC1C2N1C` (configuration not stated), the solubility (kinetic) was above 51 µg/mL.

The compound `O=C(c1ccc2c(c1)ncn2-c1ccc(Cl)cc1)N1CCCCC1` displayed a kinetic solubility above 50 µg/mL.

With `O=C(Nc1ccc(N2CCC(N3CCCCC3)CC2)c(C(=O)O)c1)c1ccc(Br)cc1`, the solubility (kinetic) is 34 µg/mL (≈ 69.9 µM).

`O=C(Nc1ccc(S(=O)(=O)N2CCN(Cc3ccccc3)CC2)cc1)c1cnccn1` showed a kinetic solubility below 1 µg/mL.

As to `Cc1ccc(S(=O)(=O)Nc2cnccc2C(=O)Nc2nc(-c3nc4ccccc4s3)cs2)cc1`, the solubility (kinetic) worked out at 2.11 µg/mL (≈ 4.15 µM).

Compound `COc1cccc(OC)c1C(=O)Nc1ccccc1C(=O)Nc1cccc(C(F)(F)F)c1` came in with a solubility (kinetic) below 1 µg/mL.

Regarding `Cc1ccc(S(=O)(=O)Nc2cnccc2C(=O)Nc2ccc(-c3nn[nH]n3)cc2)cc1`, the kinetic solubility was above 64 µg/mL.

Consider `NC(=O)c1ccc(-c2ncc3cnc(-c4cccc(F)c4)cn23)cc1`, for which the solubility (kinetic) amounted to 10.9 µg/mL (≈ 32.8 µM).

As to `O=C(Nc1cccc(C(F)(F)F)c1)c1ccccc1NC(=O)C1CCCCC1`, the kinetic solubility is below 1 µg/mL.

For `COCCNCc1ccc(-c2cc3nccc(Oc4ccc(NC(=S)NC(=O)Cc5ccc(F)cc5)cc4F)c3s2)nc1`, the solubility (kinetic) was below 1 µg/mL.

In turn, `COC1C(OC(=O)c2ccc(C)[nH]2)C(O)C(Oc2ccc3c(O)c(NC(=O)c4ccc(O)c(CC=C(C)C)c4)c(=O)oc3c2Cl)OC1(C)C` (configuration not stated) gave a kinetic solubility above 100 µg/mL.

With `Cc1cc(N2CCN(c3ccccc3)CC2)nc(-n2nc(C)cc2C)n1`, the kinetic solubility was found to be 40 µg/mL (≈ 115 µM).

`CC(=O)c1c(C)[nH]c(C(=O)Nc2cccc([S+](=O)([O-])Nc3ccccn3)c2)c1C` gave a solubility (kinetic) above 61 µg/mL.

Compound `CC(=O)c1c(C)c2cnc(Nc3ccc(N4CCNCC4)cn3)nc2n(C2CCCC2)c1=O` registered a solubility (kinetic) of 17.4 µg/mL (≈ 39 µM).

Regarding `CC(=O)c1c(C)c(C(=O)Nc2cccc([S+](=O)([O-])N3CCCCCC3)c2)n(C)c1C`, the solubility (kinetic) is below 1 µg/mL.

In turn, `C[C@@]1(O)[C@H](O)[C@@H](CO)O[C@H]1n1ccc(N)nc1=O` yielded a kinetic solubility above 38 µg/mL.

For the compound `COc1ccnc(NC(=S)N2CCN(c3cccc(C(F)(F)F)n3)CC2)c1`, the solubility (kinetic) was below 1 µg/mL.

Compound `O=C(c1ccc2c(c1)ncn2-c1cccc(Cl)c1)N1CCCCC1` came in with a kinetic solubility above 50 µg/mL.

Consider `O=C(NCc1ccncc1)c1nc(-c2cccnc2)c2cnccn12`, for which the kinetic solubility amounted to 40.8 µg/mL (≈ 124 µM).

In turn, `Cc1ccc(S(=O)(=O)NCCC(=O)Nc2nc(-c3ccccc3)cs2)cc1` displayed a kinetic solubility below 1 µg/mL.

Compound `COCCOc1cnc2ccn([C@H](C)c3nnc4c(F)cc(-c5cnn(C)c5)cn34)c(=O)c2c1` registered a kinetic solubility above 68 µg/mL.

Consider `Cc1ccc(S(=O)(=O)Nc2cc(F)c(F)cc2C(=O)Nc2nc(-c3ccccc3)cs2)cc1`, for which the kinetic solubility is below 1 µg/mL.

Turning to `COc1ccc(CNc2ccc(S(=O)(=O)Nc3nccs3)cc2)cc1O`, the solubility (kinetic) was determined as 7.85 µg/mL (≈ 20.1 µM).

Compound `COc1ccc(C)cc1NS(=O)(=O)c1ccc(-c2cnc(C3CC3)o2)cc1` registered a solubility (kinetic) below 1 µg/mL.

Take `Cc1ccc(-n2nc3c(=O)n(CCCC(=O)NCc4ccc(F)cc4)nc(C)c3c2C)cc1`: the solubility (kinetic) was 5.86 µg/mL (≈ 13.1 µM).

The compound `CCOC(=O)NNc1ccc(N(CC)CC(C)O)nn1` (configuration not stated) showed a kinetic solubility of 4.72 µg/mL (≈ 16.7 µM).

As to `COc1cccc(C(=O)Nc2ccc([S+](=O)([O-])Nc3nccs3)cc2)c1O`, the kinetic solubility was found to be 2.23 µg/mL (≈ 5.5 µM). Compared with the last compound, the solubility kinetic is about 2.1-fold lower.

In the case of `O=[N+]([O-])c1cccc(CSc2nc3ncc(Br)cc3[nH]2)c1`, the solubility (kinetic) is below 1 µg/mL.

`Cc1ccccc1C(=O)n1ccc2cc(-c3nc(NC(=O)Cc4ccc5c(c4)OCO5)sc3C)ccc21` showed a solubility (kinetic) below 1 µg/mL.

`NC(=O)c1ccc(-c2nc3c([nH]2)CN(C(=O)CN2CCOCC2)CC3)cc1`: the solubility (kinetic) was above 55 µg/mL.

In turn, `Cc1cc(C)c(C(=O)Nc2cccc([S+](=O)([O-])N3CCCCC3)c2)[nH]1` yielded a kinetic solubility below 1 µg/mL.

Consider `Cc1cc2c(-c3cccc(O)c3)nc(-c3c(C)noc3C)cc2[nH]1`, for which the kinetic solubility is below 1 µg/mL.

Turning to `C1CCc2nc3c(nc2C1)CCCC3`, the kinetic solubility was above 28 µg/mL.

In turn, `NC1CCN(c2nc(-c3ccc(Br)cc3)cs2)CC1` displayed a solubility (kinetic) of 8.9 µg/mL (≈ 26.3 µM).

`Cc1ccnc(NC(=S)N2CCN(c3ccc(C(F)(F)F)cc3[N+](=O)[O-])CC2)c1` showed a solubility (kinetic) of 4.11 µg/mL (≈ 9.67 µM).

Turning to `Cc1ccnc(NC(=S)N2CCC(c3cccc(C(F)(F)F)c3)CC2)c1`, the solubility (kinetic) is 7.75 µg/mL (≈ 20.4 µM).

As to `Nc1nc2c(s1)C(c1ccccc1)CC(=O)N2` (configuration not stated), the kinetic solubility amounted to 26 µg/mL (≈ 106 µM).

In turn, `CCOc1ccc(CCNC(=O)c2cc3sccc3n2Cc2ccccn2)cc1OCC` came in with a kinetic solubility below 1 µg/mL.

`c1ccc(C2=Nn3c(nnc3-c3ccncc3)SC2)cc1` registered a kinetic solubility of 8.9 µg/mL (≈ 30.3 µM).

Compound `CO[C@@H]1[C@H](N(C)C(=O)c2ccccc2)C[C@H]2O[C@]1(C)n1c3ccccc3c3c4c(c5c6ccccc6n2c5c31)C(=O)NC4` gave a kinetic solubility below 1 µg/mL.

The compound `CCn1cc(CNC(=O)c2cc(-c3ccc(C)cc3)nc3ccc(Br)cc23)c(C)n1` registered a solubility (kinetic) below 1 µg/mL.

Compound `COc1ccc(C2Nc3ccccc3C(=O)N2Cc2ccco2)cc1COc1c(C)cc(NC(C)=O)cc1C` (configuration not stated) had a kinetic solubility of 1.53 µg/mL (≈ 2.92 µM).

Compound `COc1ccccc1NC(=O)C1=C(C)Nc2c(C(=O)Nc3ccc(F)cc3)cnn2C1c1ccc(Cl)cc1` (configuration not stated) came in with a kinetic solubility below 1 µg/mL.

As for `COc1ccc(-c2ccc3nc(-c4cc(C)cc(C)c4)oc3c2)c(OC)c1OC`, the kinetic solubility was below 1 µg/mL.

On to `CC(C)(C)C(=O)C(Oc1ccc(Cl)cc1)n1ccnc1` (configuration not stated), for which the kinetic solubility was found to be 29 µg/mL (≈ 99.1 µM).

`CCc1ccc(NC(=O)[C@H](Cc2c[nH]c3ccccc23)NC(=O)[C@@H]2Cc3ccccc3CN2)cc1` had a solubility (kinetic) of 3.49 µg/mL (≈ 7.48 µM).

`CC(C(O)c1ccc(O)cc1)N1CCC(Cc2ccccc2)CC1` (configuration not stated) had a solubility (kinetic) above 48 µg/mL.

`CS(=O)(=O)N1CCN(c2nc(-c3ccc(Br)cc3)cs2)CC1` showed a solubility (kinetic) below 1 µg/mL.

The compound `O=C1CCCC2=C1C(C1CCCCC1Cl)N=C(NC1NC3CCCCC3S1)N2` (configuration not stated) returned a solubility (kinetic) below 1 µg/mL.

As for `Cn1cc2c3c(cccc31)CN(C(=O)c1ccc(F)c(Cl)c1)CC2`, the kinetic solubility was below 1 µg/mL.

`COc1ccc(CN2CCNc3cc(Nc4ccccc4)ncc3C2)cc1O` came in with a solubility (kinetic) above 83 µg/mL.

The compound `COc1ccnc(NC(=S)N2CCN(c3ccccc3C(F)(F)F)CC2)c1` came in with a solubility (kinetic) of 7 µg/mL (≈ 17.7 µM).

In turn, `COc1cccc(NC(=S)N2CCN(c3cccc(C(F)(F)F)c3)CC2)n1` displayed a solubility (kinetic) of 0.435 µg/mL (≈ 1.1 µM).

The compound `CC(C)(N)C(=O)N[C@H](COCc1ccccc1)C(=O)N1CCC2(CC1)CN(S(C)(=O)=O)c1ccccc12` came in with a kinetic solubility above 78 µg/mL.

On to `Cc1ccc(-c2c(CN3CCN(c4cccc(C(F)(F)F)c4)CC3)csc2C)cc1`, for which the kinetic solubility was below 1 µg/mL.

Consider `COc1ccc(CN2CCNc3cc(Nc4ccccc4)ncc3C2)cn1`, for which the solubility (kinetic) was 31.1 µg/mL (≈ 86 µM).

On to `COc1ccc(-c2cc(-c3ccccc3)nc(SCC(=O)Nc3ccccc3C)c2C#N)cc1`, for which the solubility (kinetic) was below 1 µg/mL.

In the case of `Cc1cccc(C(=O)N2CCc3cc(-c4nc(NC(=O)Cc5ccc6c(c5)OCO6)sc4C)ccc32)c1`, the solubility (kinetic) was determined as 4.07 µg/mL (≈ 7.96 µM).

Turning to `CCn1c(C(=O)NCCc2ccc(OC)cc2)cc2sccc21`, the solubility (kinetic) was 2.08 µg/mL (≈ 6.34 µM). Against the preceding compound, the solubility kinetic is about 2-fold lower.

In turn, `Cc1ccccc1C(=O)Nc1ccc2c(c1)CCCN2C(=O)c1cccs1` came in with a kinetic solubility of 7.15 µg/mL (≈ 19 µM). Against the preceding compound, the solubility kinetic is about 3.4-fold higher.

For `COc1ccccc1C(=O)N1CCc2cc(-c3nc(NC(=O)Cc4ccc5c(c4)OCO5)sc3C)ccc21`, the solubility (kinetic) was below 1 µg/mL.

In the case of `CCCCCn1cc2c(c1-c1ccc(Br)cc1)c(=O)n(C)c(=O)n2C`, the kinetic solubility was below 1 µg/mL.

`COc1ccccc1S(=O)(=O)Nc1cnccc1C(=O)Nc1nc(-c2ccccc2)cs1` had a solubility (kinetic) of 42.6 µg/mL (≈ 91.4 µM).

Compound `COc1ccc(CCn2c(N)cc(=O)[nH]c2=S)cc1OC` returned a solubility (kinetic) above 45 µg/mL.

Regarding `CN(C)CCCN1c2ccc(O)cc2Sc2ccc(Cl)cc21`, the kinetic solubility is above 49 µg/mL.

The compound `COC(=O)c1ccc([C@H]2c3[nH]c4ccccc4c3C[C@H](C(=O)OC)N2C(=O)CCl)cc1` displayed a solubility (kinetic) below 1 µg/mL.

Compound `Cc1ccc(-c2nc3ccccc3o2)cc1NC(=O)COc1ccccc1` had a solubility (kinetic) below 1 µg/mL.

`CCCCOc1ccc(C(=O)N2CCC(c3n[nH]c(=O)n3-c3ccc(C)cc3)CC2)cc1` yielded a solubility (kinetic) below 1 µg/mL.

`NC(=O)COc1cccc(C2CC(=O)Nc3nc(N4CCCCC4)sc32)c1` (configuration not stated): the solubility (kinetic) is above 57 µg/mL.

(Values after PubChem BioAssay AID1645848.)
